“And” between values parts separate entries of the source, which are not always exact repeats. Equal entries are not always repeated.
Tested on: phospho-IκBα (Ser32)
Test: NanoBiT cell-based immunoassay, phosphorylated IκBα in MCF-7 cells
Parameters: species or system human
Method: Prior to NanoBiT Cell-Based Immunoassay, 50,000 cells were seeded in 160 µl of complete growth media per well of a 96-well plate and incubated overnight. The cells were checked under microscope and it was determined that 50,000 cells per well in 96-well plate is under 90% confluency for all cells tested. If necessary, the cell culture media were replaced with serum-free media after the cells were stably adherent on the plate and incubated overnight. To treat cells with activators or inhibitors, medium was changed to 30 µl of medium containing inhibitors. If activation of a specific pathway is needed, the cells were stimulated with 10 µl of medium containing activators. To lyse the cells, 10 µl of lysis buffer containing 0.1% digitonin diluted in 1X immunoassay buffer with protease and phosphatase inhibitors was added and the plates were mixed vigorously for 20 min. Then, 50 µl of an antibody mix containing two primary antibodies against the target protein and NanoBiT detecting antibodies (0.3 µl each per well), diluted in 1X immunoassay buffer was added to the lysates. The plates were incubated at 23 °C for 90 min, followed by the addition of 25 µl of Nano-Glo® reagent consisting of Nano-Glo® Luciferase Assay Substrate mixed with 1X immunoassay buffer. Luminescence was measured using a plate-reading luminometer.
In all, 50,000 MCF-7 cells were seeded in 160 µl complete growth medium per well of a 96-well plate and incubated overnight. Half of the cells were treated with 50 ng per ml TNFα and half with vehicle. Cells were lysed as described above and a mixture of NanoBiT secondary antibodies with primary antibodies at the matrix concentrations described in Fig. 2a were added. After 90 min incubation, the Nano-Glo® reagent was added to the reactions as described above and luminescence was measured using a plate-reading luminometer.
Single dose or dose response inhibitor treatments were performed prior to activation of the pathways as follows. For IκBα, the cells were treated in 30 µl medium with IKK16 or MG132 for 60 min before the addition of 10 µl of DMEM containing appropriate concentration of TNFα. To measure phosphorylation of AKT or STAT3, the corresponding NanoBiT immunoassays were developed with MCF-7 or A431 cells, respectively, according the same scheme used to develop the IκBα assay using the primary antibodies for AKT and STAT3 described in the reagents section. For the AKT assay, MCF-7 cells were incubated overnight in phenol-red free DMEM medium (Gibco #21063-029) without serum. Treatment with LY294002 was performed in 30 µl medium and cells were incubated for 60 min before the addition of 1 µM Insulin. To measure STAT3 phosphorylation, A431 cells were incubated overnight in DMEM medium without serum. […] After addition of the stimulators, the cells were incubated for additional times as follows. IκBα phosphorylation and degradation analyses required both time courses and single time points as described in figures. […] The NanoBiT immunoassay protocol was followed as described above.
All 96-well assay plates were read using a GloMax® 96 Microplate Luminometer from Promega. The instrument was set to 0.5 s integration time. In order to obtain net change of signal, the reagent background values (signal from the well containing all reagent except primary antibodies) were subtracted from the sample values. To plot and analyze the data, Microsoft Excel and GraphPad Prism® Software were used. IC50 values were determined by using a nonlinear regression fit to a sigmoidal dose response (variable slope).

O=C(c1ccc(Nc2nccc(-c3cc4ccccc4s3)n2)cc1)N1CCC(N2CCCC2)CC1 [IKK16]
P-IkB Raw data (Figure 3a and 3b): 17490 and 17630 and 17730
P-IkB Subtract reagent background (Figure 3a and 3b): 280 and 420 and 520
P-IkB Average (Figure 3a and 3b, background subtracted): 407
TNFα-induced phosphorylation of IκBα on serine 32 (MCF-7 cells, 10 µM 1 h, TNFα 50 ng per ml 10 min): suppressed

Reference: paper PMC6941952, “A homogeneous bioluminescent immunoassay to probe cellular signaling pathway regulation” (Communications Biology, 2020)
